Source: patent US6638921B1, “Pyridoxal-5-phosphate derivatives as HIV integrase inhibitors” (Pharmacor Inc., priority 2002, dated 2003)

target: HIV-1 integrase (Human immunodeficiency virus type 1 group M subtype B, UniProt P12497); experiment: HIV-1 integrase inhibition assay in vitro (radiolabeled duplex substrate, U5 end of HIV LTR); assay type: biochemical; details: concentration of drug required to reduce the enzyme activity by 50%; read-out: IC50
Description: For the purpose of Table 1, the HIV-1 integrase inhibition assay was carried out following a known procedure (Burke, Jr. T. R. et al., J. Med. Chem. 38, 4171-4178 (1995)). A suitable radiolabeled duplex substrate corresponding to the U5 end of the HIV LTR was used.

Point of comparison: Cc1nc(N=Nc2cccc(S(=O)(=O)N3CCCCC3)c2)c(COP(=O)(O)O)c(C=O)c1O [Example 6, 6-[3-(1-Piperidinesulfonyl)phenylazo]-pyridoxal-5-phosphate], IC50 4370 nM. Against it:
- Cc1nc(N=Nc2ccc(C(N)=O)cc2)c(COP(=O)(O)O)c(C=O)c1O [Example 43, 6-(4-Carbamoylphenylazo)-pyridoxal-5-phosphate] — 2-fold higher, 8700 nM
- Cc1nc(N=Nc2ccc(S(=O)(=O)Nc3cccc(F)c3)cc2)c(COP(=O)(O)O)c(C=O)c1O [Example 45, 6-[4-(3-Fluorophenylsulfamoyl)phenylazo]-pyridoxal-5-phosphate] — 2.4-fold higher, 10500 nM
- Cc1nc(N=Nc2ccc(S(=O)(=O)Nc3ccccc3F)cc2)c(COP(=O)(O)O)c(C=O)c1O [Example 44, 6-[4-(2-Fluorophenylsulfamoyl)phenylazo]pyridoxal-5-phosphate] — 1.8-fold higher, 7700 nM
- Cc1nc(N=Nc2ccc(S(=O)(=O)NC3CCCCC3)cc2)c(COP(=O)(O)O)c(C=O)c1O [Example 18, 6-[4-(Cyclohexylsulfamoyl)phenylazo]-pyridoxal-5-phosphate] — 2-fold lower, 2200 nM
- Cc1nc(N=Nc2cccc(S(=O)(=O)NCCO)c2)c(COP(=O)(O)O)c(C=O)c1O [Example 21, 6-[3-(2-Hydroxyethylsulfamoyl)phenylazo]-pyridoxal-5-phosphate] — 1.8-fold lower, 2450 nM
- CNS(=O)(=O)c1ccc(N=Nc2nc(C)c(O)c(C=O)c2COP(=O)(O)O)cc1 [Example 20, 6-[4-(Methylsulfamoyl)phenylazo]-pyridoxal-5-phosphate] — 3.6-fold lower, 1200 nM
- Cc1nc(N=Nc2ccc(C(=O)NC3CCCCC3)cc2)c(COP(=O)(O)O)c(C=O)c1O [Example 14, 6-[4-(Cyclohexylcarbamoyl)phenylazo]-pyridoxal-5-phosphate] — within 1.5-fold, 4360 nM
- Cc1cc(NS(=O)(=O)c2ccc(N=Nc3nc(C)c(O)c(C=O)c3COP(=O)(O)O)cc2)nc(C)n1 [Example 23] — 1.6-fold lower, 2750 nM
- Cc1nc(N=Nc2cccc(C(=O)NC3=NCCCN3)c2)c(COP(=O)(O)O)c(C=O)c1O [Example 36, 6-[3-(2-(1,4,5,6-Tetrahydropyrimidyl)carbamoyl)phenylazo]-pyridoxal-5-phosphate] — within 1.5-fold, 6200 nM
- Cc1nc(N=Nc2ccc(S(=O)(=O)NCC(C)C)cc2)c(COP(=O)(O)O)c(C=O)c1O [Example 17, 6-[4-(Isobutylsulfamoyl)phenylazo]pyridoxal-5-phosphate] — 1.8-fold lower, 2450 nM
- CNS(=O)(=O)c1cccc(N=Nc2nc(C)c(O)c(C=O)c2COP(=O)(O)O)c1 [Example 26, 6-[3-(Methylsulfamoyl)phenylazo]-pyridoxal-5-phosphate] — within 1.5-fold, 3700 nM
- Cc1nc(N=Nc2ccc(S(=O)(=O)NC(C)(C)C)cc2)c(COP(=O)(O)O)c(C=O)c1O [Example 10, 6-[4-(tert-Butylsulfamoyl)phenylazo]-pyridoxal-5-phosphate] — within 1.5-fold, 4250 nM
- CCCCNS(=O)(=O)c1cccc(N=Nc2nc(C)c(O)c(C=O)c2COP(=O)(O)O)c1 [Example 19, 6-[3-(Butylsulfamoyl)phenylazo]-pyridoxal-5-phosphate] — 2.2-fold lower, 2000 nM
- Cc1nc(/N=N/c2cccc(C(=O)N3CCCCC3)c2)c(COP(=O)(O)O)c(C=O)c1O [Example 8, 6-[3-(1-Piperidinecarbonyl)phenylazo]-pyridoxal-5-phosphate] — 1.6-fold lower, 2800 nM
- Cc1nc(N=Nc2ccc(S(=O)(=O)N3CCCC3)cc2)c(COP(=O)(O)O)c(C=O)c1O [Example 15, 6-[4-(1-Pyrrolinesulfonyl)phenylazo]-pyridoxal-5-phosphate] — 2.6-fold lower, 1700 nM
- Cc1nc(N=Nc2cccc(S(N)(=O)=O)c2)c(COP(=O)(O)O)c(C=O)c1O [Example 35, 6-(3-Sulfamoylphenylazo)-pyridoxal-5-phosphate] — 2.9-fold higher, 12800 nM
- Cc1nc(N=Nc2cccc(S(=O)(=O)N3CCCC3)c2)c(COP(=O)(O)O)c(C=O)c1O [Example 12, 6-[3-(1-Pyrrolinesulfonyl)phenylazo]-pyridoxal-5-phosphate] — 1.5-fold lower, 2900 nM
- Cc1nc(N=Nc2cccc(S(=O)(=O)NCC(C)C)c2)c(COP(=O)(O)O)c(C=O)c1O [Example 16, 6-[3-(Isobutylsulfamoyl)phenylazo]-pyridoxal-5-phosphate] — 2.3-fold lower, 1900 nM
